Measurements published in patent US20260297092A1, “PYRAZOLOPYRIMIDINE DERIVATIVES AS INHIBITORS OF NLRP3” (Takeda Pharmaceutical Company Limited, priority 2023, published 2026).

Assays:
[1] = system: NLRP3 inflammasome (IL-1β production in THP-1 cells); experiment: IL-1β TR-FRET Assay (percentage of inhibition at 300 nM, 6 μM or 10 μM); assay type: cell-based, human; settings: LPS priming, ATP activation; for inhibition at 0.3 µM / inhibition at 6 µM: Homo sapiens; for inhibition at 0.3 µM: THP-1, 300 nM, read-out: IL-1β inhibitory rate at 300 nM (%); for inhibition at 6 µM: THP-1, 6 μM, read-out: IL-1β inhibitory rate at 6 μM (%)
Method in brief: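 Percent inhibition of IL-1β used DMSO wells as 0% and 3 μM MCC-950 wells as full inhibition, with supernatant read by HTRF. Beforehand, IFN-γ-differentiated (25 ng/mL, 24 h), LPS-primed (50 ng/mL, 24 h) THP-1 cells received compound 30 min before inflammasome activation by 20 mM ATP for 2 h.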

[2] = system: TNF-α (NF-κB pathway, THP-1 cells); experiment: TNF-α Assay (IC50); assay type: cell-based, human; settings: 600 ng/mL LPS, 3 hours
Method in brief: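 Supernatant TNF-α quantified by ELISA after 3 h stimulation with 600 ng/mL LPS at 37 °C, following 30 min compound preincubation. Cells: IFN-differentiated (25 ng/mL, 24 h) THP-1 macrophages, 40,000/well, serum-free. IC50 by sigmoidal fit of % inhibition, with TPCA-1 as 100% control.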

Row | Structure (SMILES) | IC50 ([2]; Homo sapiens) [µM] | inhibition at 0.3 µM [1] [%] | also measured
1 | COC(C)(C)c1nc2nn(-c3c(C)cc(C)cc3O)cc2c(=O)[nH]1 [Example 85, 2-(2-hydroxy-4,6-dimethylphenyl)-6-(2-methoxypropan-2-yl)-2,5-dihydro-4H-pyrazolo[3,4-d]pyrimidin-4-one] | > 30 | 92 | –
2 | CCc1nc2nn(-c3c(F)cc(C4CC4)cc3C(F)F)cc2c(=O)[nH]1 [Example 295, 2-[4-cyclopropyl-2-(difluoromethyl)-6-fluorophenyl]-6-ethyl-2,5-dihydro-4H-pyrazolo[3,4-d]pyrimidin-4-one] | > 30 | – | inhibition at 6 µM [1]: 105%
3 | CCc1cc(C2CC2)cc(C)c1-n1cc2c(=O)[nH]c(COC(F)F)nc2n1 [Example 291, 2-(4-cyclopropyl-2-ethyl-6-methylphenyl)-6-[(difluoromethoxy)methyl]-2,5-dihydro-4H-pyrazolo[3,4-d]pyrimidin-4-one] | > 30 | – | inhibition at 6 µM [1]: 98%
4 | COc1nc2nn(-c3c(F)cc(C4CC4)cc3C(F)F)cc2c(=O)[nH]1 [Example 193, 2-[4-cyclopropyl-2-(difluoromethyl)-6-fluorophenyl]-6-methoxy-2,5-dihydro-4H-pyrazolo[3,4-d]pyrimidin-4-one] | > 30 | 101 | –
5 | CCOc1nc2nn(-c3c(C)cc(OC(F)F)cc3F)cc2c(=O)[nH]1 [Example 109] | > 30 | 99 | –
6 | COc1ccccc1-c1nc2nn(-c3c(C)cc(C)cc3O)cc2c(=O)[nH]1 [Example 47, 2-(2-hydroxy-4,6-dimethylphenyl)-6-(2-methoxyphenyl)-2,5-dihydro-4H-pyrazolo[3,4-d]pyrimidin-4-one] | > 30 | 98 | –
7 | Cc1cc(C2CC2)cc(C)c1-n1cc2c(=O)[nH]c(C3CCCO3)nc2n1 (single isomer, unassigned) [Example 227, 2-(4-cyclopropyl-2,6-dimethylphenyl)-6-[(2R)-oxolan-2-yl]-2,5-dihydro-4H-pyrazolo[3,4-d]pyrimidin-4-one or 2-(4-cyclopropyl-2,6-dimethylphenyl)-6-[(2S)-oxolan-2-yl]-2,5-dihydro-4H-pyrazolo[3,4-d]pyrimidin-4-one (HPLC Method A: tR1)] | > 30 | – | IL-1β inhibitory rate at 300 nM (%) ([1]; 300 nM, 0.3 µM): 100%
8 | Cc1cc(C)c(-n2cc3c(=O)[nH]c(-c4cccn(C)c4=O)nc3n2)c(O)c1 [Example 66, 2-(2-hydroxy-4,6-dimethylphenyl)-6-(1-methyl-2-oxo-1,2-dihydropyridin-3-yl)-2,5-dihydro-4H-pyrazolo[3,4-d]pyrimidin-4-one] | > 30 | 97 | –
9 | CO[C@H](C)COc1nc2nn(-c3c(F)cc(C4CC4)cc3C(F)F)cc2c(=O)[nH]1 [Example 200, 2-[4-cyclopropyl-2-(difluoromethyl)-6-fluorophenyl]-6-[(2R)-2-methoxypropoxy]-2,5-dihydro-4H-pyrazolo[3,4-d]pyrimidin-4-one] | > 30 | 98 | –
10 | Cc1cc(C)c(-n2cc3c(=O)[nH]c(-c4ccn(C)n4)nc3n2)c(O)c1 [Example 23, 2-(2-hydroxy-4,6-dimethylphenyl)-6-(1-methyl-1H-pyrazol-3-yl)-2,5-dihydro-4H-pyrazolo[3,4-d]pyrimidin-4-one] | > 30 | 100 | –
11 | Cc1cc(C2CC2)cc(C)c1-n1cc2c(=O)[nH]c([C@@]3(F)CCOC3)nc2n1 [Example 289, 2-(4-cyclopropyl-2,6-dimethylphenyl)-6-[(3R)-3-fluorooxolan-3-yl]-2,5-dihydro-4H-pyrazolo[3,4-d]pyrimidin-4-one or 2-(4-cyclopropyl-2,6-dimethylphenyl)-6-[(3S)-3-fluorooxolan-3-yl]-2,5-dihydro-4H-pyrazolo[3,4-d]pyrimidin-4-one] | – | – | IL-1β inhibitory rate at 6 μM (%) ([1]; 6 μM): 101%; IC50 [2]: > 30 µM
12 | COC1(c2nc3nn(-c4c(C)cc(C5CC5)cc4C)cc3c(=O)[nH]2)CC1 [Example 266, 2-(4-cyclopropyl-2,6-dimethylphenyl)-6-(1-methoxycyclopropyl)-2,5-dihydro-4H-pyrazolo[3,4-d]pyrimidin-4-one] | > 30 | – | inhibition at 6 µM [1]: 98%
13 | CCOc1nc2nn(-c3ncc(C4CC4)cc3C(F)(F)F)cc2c(=O)[nH]1 [Example 153, 2-[5-cyclopropyl-3-(trifluoromethyl)pyridin-2-y]-6-ethoxy-2,5-dihydro-4H-pyrazolo[3,4-d]pyrimidin-4-one] | > 30 | 101 | –
14 | Cc1cc(C)c(-n2cc3c(=O)[nH]c(CC4CCCO4)nc3n2)c(O)c1 (centres unmarked) [Example 33, 2-(2-hydroxy-4,6-dimethylphenyl)-6-[(oxolan-2-yl)methyl]-2,5-dihydro-4H-pyrazolo[3,4-d]pyrimidin-4-one] | > 30 | 97 | –
15 | CO[C@@H]1C[C@H]1c1nc2nn(-c3c(C)cc(C4CC4)cc3C)cc2c(=O)[nH]1 (racemic) [Example 265, racemic mixture of 2-(4-cyclopropyl-2,6-dimethylphenyl)-6-[(1R,2S)-2-methoxycyclopropyl]-2,5-dihydro-4H-pyrazolo[3,4-d]pyrimidin-4-one and 2-(4-cyclopropyl-2,6-dimethylphenyl)-6-[(1S,2R)-2-methoxycyclopropyl]-2,5-dihydro-4H-pyrazolo[3,4-d]pyrimidin-4-one] | > 30 | – | inhibition at 6 µM [1]: 95%
16 | Cc1cc(C)c(-n2cc3c(=O)[nH]c(C(F)F)nc3n2)c(O)c1 [Example 94, 6-(difluoromethyl)-2-(2-hydroxy-4,6-dimethylphenyl)-2,5-dihydro-4H-pyrazolo[3,4-d]pyrimidin-4-one] | > 30 | 83 | –
17 | Cn1ccc(-c2nc3nn(-c4c(F)cc(C5CC5)cc4C(F)F)cc3c(=O)[nH]2)n1 [Example 299, 2-[4-cyclopropyl-2-(difluoromethyl)-6-fluorophenyl]-6-(1-methyl-1H-pyrazol-3-yl)-2,5-dihydro-4H-pyrazolo[3,4-d]pyrimidin-4-one] | > 30 | – | inhibition at 6 µM [1]: 99%
18 | Cc1cc(C2CC2)cc(C)c1-n1cc2c(=O)[nH]c(-c3cnn(C)n3)nc2n1 [Example 258, 2-(4-cyclopropyl-2,6-dimethylphenyl)-6-(2-methyl-2H-1,2,3-triazol-4-yl)-2,5-dihydro-4H-pyrazolo[3,4-d]pyrimidin-4-one] | > 30 | – | inhibition at 6 µM [1]: 100%
19 | Cc1cc(C)c(-n2cc3c(=O)[nH]c(-c4ccccn4)nc3n2)c(O)c1 [Example 9, 2-(2-hydroxy-4,6-dimethylphenyl)-6-(pyridin-2-yl)-2,5-dihydro-4H-pyrazolo[3,4-d]pyrimidin-4-one] | > 30 | 100 | –

Now from value to molecule, other results behind:

Row | IC50 ([2]; Homo sapiens) [µM] | Structure (SMILES) | inhibition at 0.3 µM [1] [%] | also measured
20 | > 30 | CCOc1nc2nn(-c3c(C)cc(C)cc3C(F)F)cc2c(=O)[nH]1 [Example 159, 2-[2-(difluoromethyl)-4,6-dimethylphenyl]-6-ethoxy-2,5-dihydro-4H-pyrazolo[3,4-d]pyrimidin-4-one] | 103 | –
21 | > 30 | CCOc1nc2nn(-c3c(C)cc(C)c(F)c3F)cc2c(=O)[nH]1 [Example 96, 2-(2,3-difluoro-4,6-dimethylphenyl)-6-ethoxy-2,5-dihydro-4H-pyrazolo[3,4-d]pyrimidin-4-one] | 55 | –
22 | > 30 | CCOc1nc2nn(-c3c(C)cc(Cl)cc3F)cc2c(=O)[nH]1 [Example 65, 2-(4-chloro-2-fluoro-6-methylphenyl)-6-ethoxy-2,5-dihydro-4H-pyrazolo[3,4-d]pyrimidin-4-one] | 96 | –
23 | > 30 | CCOc1nc2nn(-c3c(C)cc(C)cc3O)c(Cl)c2c(=O)[nH]1 [Example 26, 3-chloro-6-ethoxy-2-(2-hydroxy-4,6-dimethylphenyl)-2,5-dihydro-4H-pyrazolo[3,4-d]pyrimidin-4-one] | 94 | –
24 | > 30 | CCOc1nc2nn(-c3c(C)cc(OC(F)F)cc3Br)cc2c(=O)[nH]1 [Example 142, 2-[2-bromo-4-(difluoromethoxy)-6-methylphenyl]-6-ethoxy-2,5-dihydro-4H-pyrazolo[3,4-d]pyrimidin-4-one] | 93 | –
25 | > 30 | CCOc1nc2nn(-c3ccc(C(C)C)cc3O)c(C)c2c(=O)[nH]1 [Example 44, 6-ethoxy-2-[2-hydroxy-4-(propan-2-yl)phenyl]-3-methyl-2,5-dihydro-4H-pyrazolo[3,4-d]pyrimidin-4-one] | 101 | –
26 | > 30 | Cc1ccc(-n2nc3nc(-c4ccccn4)[nH]c(=O)c3c2C)c(O)c1 [Example 124, 2-(2-hydroxy-4-methylphenyl)-3-methyl-6-(pyridin-2-yl)-2,5-dihydro-4H-pyrazolo[3,4-d]pyrimidin-4-one] | 97 | –
27 | > 30 | CCOc1nc2nn(-c3c(C)cc(C)cc3Br)cc2c(=O)[nH]1 [Example 118, 2-(2-bromo-4,6-dimethylphenyl)-6-ethoxy-2,5-dihydro-4H-pyrazolo[3,4-d]pyrimidin-4-one] | 101 | –
28 | > 30 | CCOc1nc2nn(-c3c(C)ccc(CC)c3O)cc2c(=O)[nH]1 [Example 72, 6-ethoxy-2-(3-ethyl-2-hydroxy-6-methylphenyl)-2,5-dihydro-4H-pyrazolo[3,4-d]pyrimidin-4-one] | 94 | –
